Measured values: patent US20130150317A1, “COMPOUNDS FOR THE TREATMENT OF RENAL CELL CARCINOMA” (Myrovlytis Technology Ventures Limited, priority 2010, published 2013)

Test system: UOK cells with/without FLCN expression
Test: Effect of low-concentration rapamycin on cell proliferation (preliminary data)
Details: 1 nmol/L rapamycin; data not shown

`CO[C@H]1C[C@@H]2CC[C@@H](C)[C@@](O)(O2)C(=O)C(=O)N2CCCC[C@H]2C(=O)O[C@H]([C@H](C)C[C@@H]2CC[C@@H](O)[C@H](OC)C2)CC(=O)[C@H](C)/C=C(\C)[C@@H](O)[C@@H](OC)C(=O)[C@H](C)C[C@H](C)/C=C/C=C/C=C/1C` [rapamycin] was tested, and the “reduction on cell proliferation” value was 10%-15.
